For test [1], the system named is H929 human cancer cell lines. Kind of test: Cellular viability / proliferation (Cell TiterGlo, 72 h). The format is cell-based. The method in brief: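 H929 cells plated at 1,000/well in 10% FBS medium received a 2-fold serial compound dilution (top 50 μM, DMSO <1%) 24 h later. After 72 h, viability was read by CellTiter-Glo luminescence. IC50 came from a four-parameter fit.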

Test [2] addresses Mcl-1 (Homo sapiens (Human), UniProt Q07820). Kind of test: Fluorescence polarization anisotropy (FPA) competition assay, FITC-Bak or FITC-Bim BH3 peptide. To be noted: read-out: Ki for Inhibition of Mcl-1 by FPA assay. Format: binding.
Where [3] appears, read: Homo sapiens, NCI-H929, 72 h, read-out: GI50 on cellular proliferation of H929 human cancer cell lines, H929 cells, 72 h, Cell TiterGlo, 10% FBS.

Where two headings read alike, the source gives them in different places.

We go through 17 compounds from US11596639B2, “Substituted indole Mcl-1 inhibitors” (Vanderbilt University, priority 2016, dated 2023).

Sequence of Mcl-1 (Q07820 172-327): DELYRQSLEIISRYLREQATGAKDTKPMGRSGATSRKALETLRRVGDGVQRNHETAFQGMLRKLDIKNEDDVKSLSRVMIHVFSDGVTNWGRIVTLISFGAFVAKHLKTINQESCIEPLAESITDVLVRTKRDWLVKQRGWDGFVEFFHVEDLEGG

With `Cc1cc(OCCCc2c3n(c4c(-c5c(C)nn(C)c5C)c(Cl)ccc24)[C@H](C)CN(c2cn(C)c4ccc(C(=O)NCc5ccccn5)cc24)C3=O)cc(C)c1Cl` [Example 281, 3-[(4R)-7-chloro-10-[3-(4-chloro-3,5-dimethyl-phenoxy)propyl]-4-methyl-1-oxo-6-(1,3,5-trimethylpyrazol-4-yl)-3,4-dihydropyrazino[1,2-a]indol-2-yl]-1-methyl-N-(2-pyridylmethyl)indole-5-carboxamide], the GI50 in test [1] (setting [3]) stood at 1400 nM. Moreover, the Ki in test [2] worked out at 2.2 nM.

Take `Cc1cc(OCCCc2c3n(c4c(-c5c(C)nn(C)c5C)c(Cl)ccc24)[C@H](C)CN(c2cn(C)c4ccc(C(=O)N(C)Cc5cccnc5)cc24)C3=O)cc(C)c1Cl` [Example 282, 3-[(4R)-7-chloro-10-[3-(4-chloro-3,5-dimethyl-phenoxy)propyl]-4-methyl-1-oxo-6-(1,3,5-trimethylpyrazol-4-yl)-3,4-dihydropyrazino[1,2-a]indol-2-yl]-N,1-dimethyl-N-(3-pyridylmethyl)indole-5-carboxamide]: the GI50 in test [1] (setting [3]) is 2400 nM. For the same compound, in test [2], the inhibitory constant (Ki) came out at 8.4 nM.

On to `Cc1cc(OCCCc2c3n(c4c(-c5c(C)nn(C)c5C)c(Cl)ccc24)[C@H](C)CN(c2cn(C)c4ccc(C(=O)Nc5ccncc5)cc24)C3=O)cc(C)c1Cl` [Example 283, 3-[(4R)-7-chloro-10-[3-(4-chloro-3,5-dimethyl-phenoxy)propyl]-4-methyl-1-oxo-6-(1,3,5-trimethylpyrazol-4-yl)-3,4-dihydropyrazino[1,2-a]indol-2-yl]-1-methyl-N-(4-pyridyl)indole-5-carboxamide], for which, in test [1] (setting [3]), the GI50 worked out at 1200 nM. Moreover, in test [2], the Ki worked out at 1.2 nM.

For the compound `Cc1cc(OCCCc2c3n(c4c(-c5c(C)nn(C)c5C)c(Cl)ccc24)[C@H](C)CN(c2cn(C)c4ccc(C(=O)NCc5ccncc5)cc24)C3=O)cc(C)c1Cl` [Example 284, 3-[(4R)-7-chloro-10-[3-(4-chloro-3,5-dimethyl-phenoxy)propyl]-4-methyl-1-oxo-6-(1,3,5-trimethylpyrazol-4-yl)-3,4-dihydropyrazino[1,2-a]indol-2-yl]-1-methyl-N-(4-pyridylmethyl)indole-5-carboxamide], the GI50 in test [1] (setting [3]) was determined as 1500 nM. For the same compound, in test [2], the Ki came to 3.6 nM.

Turning to `Cc1cc(OCCCc2c3n(c4c(-c5c(C)nn(C)c5C)c(Cl)ccc24)[C@H](C)CN(c2cn(C)c4ccc(C(=O)Nc5ccccc5)cc24)C3=O)cc(C)c1Cl` [Example 285, 3-[(4R)-7-chloro-10-[3-(4-chloro-3,5-dimethyl-phenoxy)propyl]-4-methyl-1-oxo-6-(1,3,5-trimethylpyrazol-4-yl)-3,4-dihydropyrazino[1,2-a]indol-2-yl]-1-methyl-N-phenyl-indole-5-carboxamide], the GI50 in test [1] (setting [3]) worked out at 5300 nM. In addition, in test [2], the Ki was less than 1 nM.

As for `CNC(=O)c1ccc2c(c1)c(N1C[C@@H](C)n3c(c(CCCOc4cc(C)c(Cl)c(C)c4)c4ccc(Cl)c(-c5c(C)nn(C)c5C)c43)C1=O)cn2C` [Example 286, (R)-3-(7-chloro-10-(3-(4-chloro-3,5-dimethylphenoxy)propyl)-4-methyl-1-oxo-6-(1,3,5-trimethyl-1H-pyrazol-4-yl)-3,4-dihydropyrazino[1,2-a]indol-2(1H)-yl)-N,1-dimethyl-1H-indole-5-carboxamide], the GI50 in test [1] (setting [3]) is 510 nM. In test [2], the Ki came to 3.3 nM.

For `Cc1cc(OCCCc2c3n(c4c(-c5c(C)nn(C)c5C)c(Cl)ccc24)[C@H](C)CN(c2cn(C)c4ccc(C(=O)NCc5cccnc5)cc24)C3=O)cc(C)c1Cl` [Example 287, 3-[(4R)-7-chloro-10-[3-(4-chloro-3,5-dimethyl-phenoxy)propyl]-4-methyl-1-oxo-6-(1,3,5-trimethylpyrazol-4-yl)-3,4-dihydropyrazino[1,2-a]indol-2-yl]-1-methyl-N-(3-pyridylmethyl)indole-5-carboxamide], the GI50 in test [1] (setting [3]) amounted to 1600 nM. Further, the Ki in test [2] turned out to be 3 nM.

As for `Cc1cc(OCCCc2c3n(c4c(-c5c(C)nn(C)c5C)c(Cl)ccc24)[C@H](C)CN(c2cn(C)c4ccccc24)C3=O)cc(C)c1Cl` [Example 288, (R)-7-chloro-10-(3-(4-chloro-3,5-dimethylphenoxy)propyl)-4-methyl-2-(1-methyl-1H-indol-3-yl)-6-(1,3,5-trimethyl-1H-pyrazol-4-yl)-3,4-dihydropyrazino[1,2-a]indol-1(2H)-one], in test [1] (setting [3]), the GI50 was 8400 nM. In test [2], the inhibition constant Ki stood at 3 nM.

For the compound `Cc1cc(OCCCc2c3n(c4c(-c5c(C)nn(C)c5C)c(Cl)ccc24)[C@H](C)CN(c2cn(C)c4ccc(C(=O)N(C)C)cc24)C3=O)cc(C)c1Cl` [Example 289, 3-[(4R)-7-chloro-10-[3-(4-chloro-3,5-dimethyl-phenoxy)propyl]-4-methyl-1-oxo-6-(1,3,5-trimethylpyrazol-4-yl)-3,4-dihydropyrazino[1,2-a]indol-2-yl]-N,N,1-trimethyl-indole-5-carboxamide], in test [1] (setting [3]), the GI50 was determined as 5200 nM. For the same compound, the Ki in test [2] turned out to be 15 nM.

For the compound `Cc1cc(OCCCc2c3n(c4c(-c5c(C)nn(C)c5C)c(Cl)ccc24)[C@H](C)CN(c2cn(C)c4ccc(C(=O)N5CCCC5)cc24)C3=O)cc(C)c1Cl` [Example 290, (4R)-7-chloro-10-[3-(4-chloro-3,5-dimethyl-phenoxy)propyl]-4-methyl-2-[1-methyl-5-(pyrrolidine-1-carbonyl)indol-3-yl]-6-(1,3,5-trimethylpyrazol-4-yl)-3,4-dihydropyrazino[1,2-a]indol-1-one], in test [1] (setting [3]), the GI50 came to 5300 nM. Moreover, the inhibition constant (Ki) in test [2] was determined as 12 nM.

Consider `Cc1cc(OCCCc2c3n(c4c(-c5c(C)nn(C)c5C)c(Cl)ccc24)[C@H](C)CN(c2cn(C)c4ccc(C(=O)Nc5cccnc5)cc24)C3=O)cc(C)c1Cl` [Example 291, 3-[(4R)-7-chloro-10-[3-(4-chloro-3,5-dimethyl-phenoxy)propyl]-4-methyl-1-oxo-6-(1,3,5-trimethylpyrazol-4-yl)-3,4-dihydropyrazino[1,2-a]indol-2-yl]-1-methyl-N-(3-pyridyl)indole-5-carboxamide], for which, in test [1] (setting [3]), the GI50 is 1000 nM. For the same compound, the inhibitory constant (Ki) in test [2] was 1.1 nM.

Take `Cc1cc(OCCCc2c3n(c4c(-c5c(C)nn(C)c5C)c(Cl)ccc24)[C@H](C)CN(c2cn(CCN4CCOCC4)c4cc(C(=O)O)ccc24)C3=O)cc(C)c1Cl` [Example 292, (R)-3-(7-chloro-10-(3-(4-chloro-3,5-dimethylphenoxy)propyl)-4-methyl-1-oxo-6-(1,3,5-trimethyl-1H-pyrazol-4-yl)-3,4-dihydropyrazino[1,2-a]indol-2(1H)-yl)-1-(2-morpholinoethyl)-1H-indole-6-carboxylic acid]: the GI50 in test [1] (setting [3]) worked out at 690 nM. Moreover, the Ki in test [2] was less than 1 nM.

On to `Cc1cc(OCCCc2c3n(c4c(-c5c(C)nn(C)c5C)c(Cl)ccc24)[C@H](C)CN(c2cn(CCN4CCOCC4)c4cc(C(=O)O)ccc24)C3=O)cc(C)c1Cl` [Example 293, (R)-3-(7-chloro-10-(3-(4-chloro-3,5-dimethylphenoxy)propyl)-4-methyl-1-oxo-6-(1,3,5-trimethyl-1H-pyrazol-4-yl)-3,4-dihydropyrazino[1,2-a]indol-2(1H)-yl)-1-(2-morpholinoethyl)-1H-indole-6-carboxylic acid], for which, in test [1] (read-out: GI50 on cellular proliferation of H929 human cancer cell lines, H929 cells, 72 h, Cell TiterGlo, 10% FBS), the GI50 was found to be 810 nM. Besides, the Ki in test [2] is less than 1 nM.

Regarding `Cc1cc(OCCCc2c3n(c4c(-c5c(C)nc(COCc6ccccc6)nc5C)c(Cl)ccc24)CCCN(c2cn(C)c4ccc(C(=O)O)cc24)C3=O)cc(C)c1Cl` [Example 294, 3-[7-[2-(benzyloxymethyl)-4,6-dimethyl-pyrimidin-5-yl]-8-chloro-11-[3-(4-chloro-3,5-dimethyl-phenoxy)propyl]-1-oxo-4,5-dihydro-3H-[1,4]diazepino[1,2-a]indol-2-yl]-1-methyl-indole-5-carboxylic acid], the GI50 in test [1] (setting [3]) stood at 2000 nM. In test [2], the Ki was less than 1 nM.

Regarding `Cc1cc(N2C[C@@H](C)n3c(c(CCCOc4cc(C)c(Cl)c(C)c4)c4ccc(Cl)c(-c5c(C)nn(C)c5C)c43)C2=O)c2c(c1)cc(C(=O)O)n2Cc1ccccn1` [Example 295, 7-[(4R)-7-chloro-10-[3-(4-chloro-3,5-dimethyl-phenoxy)propyl]-4-methyl-1-oxo-6-(1,3,5-trimethylpyrazol-4-yl)-3,4-dihydropyrazino[1,2-a]indol-2-yl]-5-methyl-1-(2-pyridylmethyl)indole-2-carboxylic acid], the GI50 in test [1] (setting [3]) is less than 200 nM. For the same compound, the Ki in test [2] was less than 1 nM.

Regarding `Cc1cc(N2C[C@@H](C)n3c(c(CCCOc4cc(C)c(Cl)c(C)c4)c4ccc(Cl)c(-c5c(C)ncnc5C)c43)C2=O)c2c(c1)cc(C(=O)O)n2Cc1ccccn1` [Example 296, 7-[(4R)-7-chloro-10-[3-(4-chloro-3,5-dimethyl-phenoxy)propyl]-6-(4,6-dimethylpyrimidin-5-yl)-4-methyl-1-oxo-3,4-dihydropyrazino[1,2-a]indol-2-yl]-5-methyl-1-(2-pyridylmethyl)indole-2-carboxylic acid], the GI50 in test [1] (setting [3]) was found to be 240 nM. The Ki in test [2] was less than 1 nM.

In the case of `Cc1cc(OCCCc2c3n(c4c(-c5c(C)nn(C)c5C)c(Cl)ccc24)[C@H](C)CN(c2cc(OCc4ccccc4)cc4c2cc(C(=O)O)n4C)C3=O)cc(C)c1Cl` [Example 297, (P, R)-6-(benzyloxy)-4-(7-chloro-10-(3-(4-chloro-3,5-dimethylphenoxy)propyl)-4-methyl-1-oxo-6-(1,3,5-trimethyl-1H-pyrazol-4-yl)-3,4-dihydropyrazino[1,2-a]indol-2(1H)-yl)-1-methyl-1H-indole-2-carboxylic acid], the GI50 in test [1] (H929 cells, 72 h, Cell TiterGlo, 10% FBS, read-out: GI50 on cellular proliferation of H929 human cancer cell lines) is 7900 nM. Besides, in test [2], the Ki was 2.4 nM.
